Patent publication US20180243290A1, “MORPHINAN COMPOUNDS FOR TREATING AGITATION” (Concert Pharmaceuticals, Inc., priority 2015, published 2018)

How the values were obtained:
[1] = Metabolic stability in extensive metabolizer human liver microsomes with and without quinidine; format: in vitro ADME; conditions: for CLint scaled at 100 ng/mL / half-life at 100 ng/mL: human; for CLint scaled at 100 ng/mL / % Δ (D6-Dimemorfan/Dimemorfan) of t1/2 / Clint, app Ratio (D6-Dimemorfan/Dimemorfan) / Clint, app Ratio (respective to 0 concentration of Quinidine) / t1/2 Ratio (respective to 0 concentration of Quinidine): EM HLM; for half-life at 100 ng/mL: EM HLM 1.0 mg/mL, 100 ng/mL test compound, 60 min
Procedure: Individual donor with extensive metabolizer human liver microsomes (EM HLM) (20 mg/mL) with CYP2D6 activity of 957±19 pmol/mg protein/min, genotyped for CYP2D6 allelic variant-CYP2D6*1/*2x2, were obtained from Xenotech, LLC (Lenexa, Kans.). β-nicotinamide adenine dinucleotide phosphate, reduced form (NADPH), magnesium chloride (MgCl2), dimethyl sulfoxide (DMSO), acetonitrile (ACN), quinidine, and dextromethorphan (DM) were purchased from Sigma-Aldrich. Dimemorfan and d6-dimemorfan (Compound 100) were synthesized by Adesis, Inc.
1.0 mg/mL stock solutions of test compounds dextromethorphan (DM), dimemorfan, and d6-dimemorfan (Compound 100) were prepared in DMSO. The 1.0 mg/mL stock solutions were diluted to 10,000 ng/mL in acetonitrile (ACN). A 10 mM stock solution of quinidine was prepared in acetonitrile, which was then diluted further in acetonitrile to produce 20 μM, 10 μM, 5 μM, 2.5 μM, and 1.25 μM solutions of quinidine. The human liver microsomes were diluted to 1.25 mg/mL in 0.1 M potassium phosphate buffer, pH 7.4, containing 3 mM MgCl2. The diluted microsomes were added to wells of a 96-well deep-well polypropylene plate in triplicate. A 5 μL aliquot of each 10,000 ng/mL test compound was added to the microsomes, and the mixture was pre-warmed at 37° C. for 7 minutes, then a 5 μL aliquot of each quinidine solution was added (except in control wells where no quinidine was added). Reactions were initiated by addition of pre-warmed NADPH solution to the mixture. The final reaction volume was 0.5 mL and contained 1.0 mg/mL human liver microsomes, 100 ng/mL of test compound, 0.2, 0.1, 0.05, 0.025, 0.0125, or 0 μM of quinidine, and 2 mM NADPH in 0.1 M potassium phosphate buffer, pH 7.4, and 3 mM MgCl2. The reaction mixtures were incubated at 37° C., and 50 μL aliquots were removed at 0, 15, 30, and 60 minutes and added to shallow-well 96-well plates which contained 50 μL of ice-cold ACN with internal standard to stop the reactions. The plates were stored at 4° C. for 20 minutes after which 100 μL of water was added to the wells of the plate before centrifugation to pellet precipitated proteins. Supernatants were transferred to another 96-well plate and analyzed for amounts of parent remaining by LC-MS/MS using an Applied Bio-systems mass spectrometer. Amount of parent remaining was quantified via standard curve.
The in vitro till's for test compounds were calculated from the slopes of the linear regression of % parent remaining (1n) vs. incubation time relationship.
k=−[slope of linear regression of % parent remaining(ln) vs incubation time]
The apparent intrinsic clearance was calculated using the following equation:
CLint (mL/min/kg)=(0.693/in vitro t1/2) (Incubation Volume/mg of microsomes) • (45 mg microsomes/gram of liver) (20 gm of liver/kg b.w.)
Data analysis was performed using Microsoft Excel Software.

[2] = healthy human males; cited from earlier work
[3] = pH 7.4, with none (quinidine 0 µM, control), quinidine 0 μM
[4] = pH 7.4, with quinidine 0.0125 µM, quinidine 0.0125 μM
[5] = pH 7.4, with quinidine 0.025 µM, quinidine 0.025 μM
[6] = pH 7.4, with quinidine 0.05 µM, quinidine 0.05 μM
[7] = pH 7.4, with quinidine 0.1 µM, quinidine 0.1 μM
[8] = pH 7.4, with quinidine 0.2 µM, quinidine 0.2 μM

Row | SMILES | CLint scaled at 100 ng/mL [1, 3] [mL/min/kg] | half-life at 100 ng/mL [1, 3] [min] | CLint scaled at 100 ng/mL [1, 4] [mL/min/kg] | half-life at 100 ng/mL [1, 4] [min] | CLint scaled at 100 ng/mL [1, 5] [mL/min/kg] | half-life at 100 ng/mL [1, 5] [min] | CLint scaled at 100 ng/mL [1, 6] [mL/min/kg] | half-life at 100 ng/mL [1, 6] [min] | CLint scaled at 100 ng/mL [1, 7] [mL/min/kg] | half-life at 100 ng/mL [1, 7] [min] | CLint scaled at 100 ng/mL [1, 8] [mL/min/kg] | half-life at 100 ng/mL [1, 8] [min] | Clint, app Ratio (respective to 0 concentration of Quinidine) ([1]; quinidine 0 μM) | t1/2 Ratio (respective to 0 concentration of Quinidine) ([1]; quinidine 0 μM) | Clint, app Ratio (respective to 0 concentration of Quinidine) ([1]; quinidine 0.0125 μM) | t1/2 Ratio (respective to 0 concentration of Quinidine) ([1]; quinidine 0.0125 μM) | Clint, app Ratio (respective to 0 concentration of Quinidine) ([1]; quinidine 0.025 μM) | t1/2 Ratio (respective to 0 concentration of Quinidine) ([1]; quinidine 0.025 μM) | Clint, app Ratio (respective to 0 concentration of Quinidine) ([1]; quinidine 0.05 μM) | t1/2 Ratio (respective to 0 concentration of Quinidine) ([1]; quinidine 0.05 μM) | further results
1 | [2H]C([2H])([2H])c1ccc2c(c1)[C@]13CCCC[C@@H]1[C@H](C2)N(C([2H])([2H])[2H])CC3 [D6-Dimemorfan] | 48.2 | 6.5 | 30.9 | 10.1 | 23.6 | 13.2 | 17.3 | 18 | 10 | 31.1 | 8.2 | 37.9 | 1.0 | 1.0 | 0.64 | 1.6 | 0.49 | 2.0 | 0.36 | 2.8 | % Δ (D6-Dimemorfan/Dimemorfan) of t1/2 ([1]; quinidine 0 μM): 35%; Clint, app Ratio (D6-Dimemorfan/Dimemorfan) ([1]; quinidine 0 μM): 0.74; % Δ (D6-Dimemorfan/Dimemorfan) of t1/2 ([1]; quinidine 0.0125 μM): 59%; Clint, app Ratio (D6-Dimemorfan/Dimemorfan) ([1]; quinidine 0.0125 μM): 0.61; % Δ (D6-Dimemorfan/Dimemorfan) of t1/2 ([1]; quinidine 0.025 μM): 3%; Clint, app Ratio (D6-Dimemorfan/Dimemorfan) ([1]; quinidine 0.025 μM): 0.96; % Δ (D6-Dimemorfan/Dimemorfan) of t1/2 ([1]; quinidine 0.05 μM): 11%; Clint, app Ratio (D6-Dimemorfan/Dimemorfan) ([1]; quinidine 0.05 μM): 0.90; % Δ (D6-Dimemorfan/Dimemorfan) of t1/2 ([1]; quinidine 0.1 μM): 22%; Clint, app Ratio (D6-Dimemorfan/Dimemorfan) ([1]; quinidine 0.1 μM): 0.82; Clint, app Ratio (respective to 0 concentration of Quinidine) ([1]; quinidine 0.1 μM): 0.21; t1/2 Ratio (respective to 0 concentration of Quinidine) ([1]; quinidine 0.1 μM): 4.8; % Δ (D6-Dimemorfan/Dimemorfan) of t1/2 ([1]; quinidine 0.2 μM): −12%; Clint, app Ratio (D6-Dimemorfan/Dimemorfan) ([1]; quinidine 0.2 μM): 1.11; Clint, app Ratio (respective to 0 concentration of Quinidine) ([1]; quinidine 0.2 μM): 0.17; t1/2 Ratio (respective to 0 concentration of Quinidine) ([1]; quinidine 0.2 μM): 5.8
2 | Cc1ccc2c(c1)[C@]13CCCC[C@@H]1[C@H](C2)N(C)CC3 [Dimemorfan, (+)-(9α,13α,14α)-3,17-dimethylmorphinan] | 64.9 | 4.81 | 50.8 | 6.34 | 24.7 | 12.8 | 19.3 | 16.2 | 12.2 | 25.5 | 7.4 | 43.1 | 1.0 | 1.0 | 0.78 | 1.3 | 0.38 | 2.7 | 0.30 | 3.4 | Clint, app Ratio (respective to 0 concentration of Quinidine) ([1]; quinidine 0.1 μM): 0.19; t1/2 Ratio (respective to 0 concentration of Quinidine) ([1]; quinidine 0.1 μM): 5.3; Clint, app Ratio (respective to 0 concentration of Quinidine) ([1]; quinidine 0.2 μM): 0.11; t1/2 Ratio (respective to 0 concentration of Quinidine) ([1]; quinidine 0.2 μM): 9.0; fraction of a dose metabolized [2]: Greater than 98%
3 | COc1ccc2c(c1)[C@]13CCCC[C@@H]1[C@H](C2)N(C)CC3 [DM, (+)-3-methoxy-17-methyl-(9α,13α,14α)-morphinan] | 15.4 | 20.5 | 12.1 | 25.6 | 10.6 | 29.6 | 9.5 | 33 | 7.4 | 42.1 | 4.8 | 64.5 | 1.0 | 1.0 | 0.79 | 1.2 | 0.69 | 1.4 | 0.62 | 1.6 | Clint, app Ratio (respective to 0 concentration of Quinidine) ([1]; quinidine 0.1 μM): 0.48; t1/2 Ratio (respective to 0 concentration of Quinidine) ([1]; quinidine 0.1 μM): 2.1; Clint, app Ratio (respective to 0 concentration of Quinidine) ([1]; quinidine 0.2 μM): 0.31; t1/2 Ratio (respective to 0 concentration of Quinidine) ([1]; quinidine 0.2 μM): 3.1
